Measured values taken from PubChem BioAssay (NCI).
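Method: 48-hour compound exposure of cells in 96-well plates, five concentrations, linear interpolation of endpoints. Definition used: TGI = concentration required for complete inhibition of growth.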

Tests used:
Assay in all cases: growth of human tumour cells (NCI), 48 h
HT29 colon = test system: HT29 colon
OVCAR-3 ovarian = test system: OVCAR-3 ovarian
HCT-116 colon = test system: HCT-116 colon
OVCAR-4 ovarian = test system: OVCAR-4 ovarian
MCF7 breast = test system: MCF7 breast
SR leukemia = test system: SR leukemia
MALME-3M melanoma = test system: MALME-3M melanoma
TK-10 renal = test system: TK-10 renal
MDA-MB-231 breast = test system: MDA-MB-231 breast
DU-145 prostate = test system: DU-145 prostate
786-0 renal = test system: 786-0 renal
UACC-257 melanoma = test system: UACC-257 melanoma
MDA-MB-435 = test system: MDA-MB-435
HOP-62 NSCLC = test system: HOP-62 NSCLC
T-47D breast = test system: T-47D breast
MDA-N = test system: MDA-N
EKVX NSCLC = test system: EKVX NSCLC
SNB-75 CNS = test system: SNB-75 CNS
NCI-H522 lung = test system: NCI-H522 lung
RPMI-8226 leukemia = test system: RPMI-8226 leukemia
SN12C renal = test system: SN12C renal
HOP-92 NSCLC = test system: HOP-92 NSCLC
CAKI-1 renal = test system: CAKI-1 renal
HCT-15 colon = test system: HCT-15 colon
SF-539 CNS = test system: SF-539 CNS
SK-OV-3 ovarian = test system: SK-OV-3 ovarian
SF-268 CNS = test system: SF-268 CNS
OVCAR-5 ovarian = test system: OVCAR-5 ovarian
A498 renal = test system: A498 renal
HS 578T breast = test system: HS 578T breast
NCI-H226 lung = test system: NCI-H226 lung
KM12 colon = test system: KM12 colon
RXF 393 renal = test system: RXF 393 renal
PC-3 prostate = test system: PC-3 prostate
MOLT-4 leukemia = test system: MOLT-4 leukemia
M14 melanoma = test system: M14 melanoma
SF-295 CNS = test system: SF-295 CNS
U251 CNS = test system: U251 CNS
UACC-62 melanoma = test system: UACC-62 melanoma
OVCAR-8 ovarian = test system: OVCAR-8 ovarian
SNB-19 CNS = test system: SNB-19 CNS
K-562 leukemia = test system: K-562 leukemia
IGROV1 ovarian = test system: IGROV1 ovarian
SW-620 colon = test system: SW-620 colon
COLO 205 colon = test system: COLO 205 colon
HL-60(TB) leukemia = test system: HL-60(TB) leukemia
CCRF-CEM leukemia = test system: CCRF-CEM leukemia
A549 NSCLC = test system: A549 NSCLC
SK-MEL-28 melanoma = test system: SK-MEL-28 melanoma
LOX IMVI melanoma = test system: LOX IMVI melanoma
UO-31 renal = test system: UO-31 renal
BT-549 breast = test system: BT-549 breast
NCI-H460 lung = test system: NCI-H460 lung
NCI-H23 lung = test system: NCI-H23 lung
NCI/ADR-RES ovarian = test system: NCI/ADR-RES ovarian
HCC-2998 colon = test system: HCC-2998 colon
ACHN renal = test system: ACHN renal
SK-MEL-2 melanoma = test system: SK-MEL-2 melanoma
SK-MEL-5 melanoma = test system: SK-MEL-5 melanoma

Measured: TGI

CC1CN(c2cc3c(cc2F)c(=O)c(C(=O)O)cn3-c2ccc(F)cn2)CC(C)N1 (stereo not drawn)
not listed: HCC-2998 colon | ACHN renal | SK-MEL-2 melanoma | SK-MEL-5 melanoma
> 100 µM: all other assays above

O=C(CCc1ccccc1)n1cccc1CO
not listed: HOP-92 NSCLC
> 100 µM: all other assays above
